Tests used:
[1] = tested on: per1 gene expression in skin cells; assay: observation of per1 gene expression in skin cells (no method given); type: cell-based; details: component commonly found in extracts of Echinacea
per1 gene expression = per1 gene expression luciferase reporter assay in keratinocytes; type: cell-based; details: normal human epidermal keratinocytes (NHEK) transfected with pGL4.11 per1/luciferase plasmid; 16 hours incubation with test material; values only in FIGS. 1 and 2
Experimental: Cichoric acid and […] purpurea extract ([…]) were tested to determine per1 gene expression. Normal human epidermal keratinocytes (NHEK) were diluted in […] with supplement S001-5 added (Gibco, Cascade Biologics, Invitrogen) to form a concentration of 3×10^4 and plated onto a black walled 96 well microtiter plate by adding 100 μl in each well. The plate was incubated for 3 hours at 37° C. in 5% CO2. The media was removed and remaining adhered cells rinsed with […], supplement free. A plasmid solution was prepared by diluting Tris-EDTA pH 8.0 buffer with plasmid pGL4.11 (DNA 2.0, Carlsbad, Calif.) to form a 1 mg/ml solution. This plasmid contained a per1 gene sequence and a luciferase reporter gene sequence. A transfection mixture was prepared by diluting […], supplement free, to form a solution with 0.31 μg/ml of plasmid (obtained by adding appropriate amount of plasmid solution prepared above), 1.28% PlusTM Reagent (Catalog No. 11514-015, Invitrogen, Carlsbad, Calif.), and 3.22% LipofectamineTM Transfection Reagent (Catalog No. 18324-012, Invitrogen, Carlsbad, Calif.). […] Immediately prior to reading, Bright-GloTM (Pro-Mega, Madison Wis.) was added to each well plate in the same volume as is currently in the well (e.g. a 1:1 dilution). Luminescence was measured in an LMaxTM Microplate Luminometer (Molecular Devices, Sunnyvale, Calif.).

SMILES | per1 gene expression in skin cells [1] | per1 gene expression (luminescence of per1-luciferase reporter) (per1 gene expression)
O=C(/C=C/c1ccc(O)c(O)c1)O[C@@H](C(=O)O)[C@@H](O)C(=O)O [caftaric acid] | does not increase per1 gene expression | –
O=C(/C=C/c1ccc(O)c(O)c1)O[C@@H](C(=O)O)[C@@H](OC(=O)/C=C/c1ccc(O)c(O)c1)C(=O)O [cichoric acid] | – | stimulate per1 gene expression

Source: patent publication US20170354629A1, “Method And Compositions For Treating Skin” (ELC Management LLC, priority 2011, published 2017)
